Data on 40 compounds can be found in US20160145247A1, “Aminomethyl-Biaryl Derivatives Complement Factor D inhibitors and uses thereof” (NOVARTIS AG, priority 2013, published 2016).

Each structure is given as a SMILES string. pIC50: −log10 of the molar value. Values joined by “and” are separate entries in the source; they are usually repeats but may differ in a detail not shown here. Equal entries are not always repeated.

T1 sequence (P00746 26-253): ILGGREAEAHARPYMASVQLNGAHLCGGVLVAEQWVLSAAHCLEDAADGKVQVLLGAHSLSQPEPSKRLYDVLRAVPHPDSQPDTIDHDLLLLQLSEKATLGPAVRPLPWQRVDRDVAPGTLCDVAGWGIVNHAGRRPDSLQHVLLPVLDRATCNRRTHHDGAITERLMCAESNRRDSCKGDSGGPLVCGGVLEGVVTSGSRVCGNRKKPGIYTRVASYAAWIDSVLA

The test addresses T1, factor D (Homo sapiens, UniProt P00746).
T1 construct: made in house; host or cells: E. coli
Kind of test: factor D inhibition assay of Biological Example 2. The test is classed as biochemical.
On to `N[C@H](CO)c1cccc(-c2ccc(OC(F)(F)F)c(COc3ccccc3CC(=O)O)c2)c1` [Example 188, (S)-2-(2-((3′-(1-Amino-2-hydroxyethyl)-4-(trifluoromethoxy)-[1,1′-biphenyl]-3-yl)methoxy)phenyl)acetic acid], for which the pIC50 is 7.77. Under `N[C@H](CO)c1cc(F)cc(-c2cccc(COc3ccccc3CC(=O)O)c2)c1` [Example 190-A] stands 7.39; under `CC[C@@H](N)c1cccc(-c2cccc(COc3ccccc3CC(=O)O)c2)c1` [Example 190-C], 5.92. As for `C[C@H](O)[C@@H](N)c1cccc(-c2cccc(COc3ccccc3CC(=O)O)c2)c1` [Example 190-D], the negative-log IC50 (pIC50) was 6.01. `CCC[C@@H](N)c1cccc(-c2cccc(COc3ccccc3CC(=O)O)c2)c1` [Example 190-E]: the negative logarithm of the IC50 (pIC50) was 7.47. The compound `CC(C)[C@@H](N)c1cccc(-c2cccc(COc3ccccc3CC(=O)O)c2)c1` [Example 190-F] gave a negative-log IC50 (pIC50) of 5.50. In turn, `C[C@@H](O)[C@@H](N)c1cccc(-c2cccc(COc3ccccc3CC(=O)O)c2)c1` [Example 190-G] gave a negative logarithm of the IC50 (pIC50) of 6.91. Under `N[C@H](CCO)c1cccc(-c2cccc(COc3ccccc3CC(=O)O)c2)n1` [Example 190-H] stands 5.95; under `N[C@H](CCO)c1cccc(-c2cccc(COc3ccccc3CC(=O)O)c2)c1F` [Example 190-J], 7.89; under `NCc1nc(-c2cccc(COc3ccccc3CC(=O)O)c2)cs1` [Example 190-K], 6.88. Compound `CC(C)(N)c1cccc(-c2cccc(COc3ccccc3CC(=O)O)c2)c1F` [Example 190-L] showed a negative-log IC50 (pIC50) of 5.49.

Consider `O=C(O)Cc1ccccc1OCc1cccc(-c2cccc(-c3nnn[nH]3)c2)c1` [Example 191, 2-(2-((3′-(1H-Tetrazol-5-yl)-[1,1′-biphenyl]-3-yl)methoxy)phenyl)acetic acid], for which the pIC50 was 4.69 and 4.68.

In the case of `N=C(N)c1cccc(-c2cccc(COc3ccccc3CC(=O)O)c2)c1` [Example 192-B, 2-(2-((3′-Carbamimidoyl-[1,1′-biphenyl]-3-yl)methoxy)phenyl)acetic acid], the negative-log IC50 (pIC50) is 7.74. Under `N[C@H](C(=O)O)c1cccc(-c2cccc(COc3ccccc3CC(=O)O)c2)c1` [Example 193, (S)-2-Amino-2-(3′-((2-(carboxymethyl)phenoxy)methyl)-[1,1′-biphenyl]-3-yl)acetic acid] stands 7.32. Take `CCC[C@@H](N)c1cccc(-c2cccc(COc3c(F)cccc3CC(=O)O)c2)c1` [Example 194, (R)-2-(2-((3′-(1-Aminobutyl)-[1,1′-biphenyl]-3-yl)methoxy)-3-fluorophenyl)acetic acid]: the pIC50 is 6.58. Under `CCC[C@@H](N)c1cccc(-c2cccc(COc3ccccc3CC(=O)O)c2)c1F` [Example 195-B, (R)-2-(2-((3′-(1-Aminobutyl)-2′-fluoro-[1,1′-biphenyl]-3-yl)methoxy)phenyl)acetic acid] stands 6.97; under `CCC[C@@H](N)c1cccc(-c2cccc(COc3ccccc3CC(=O)O)c2)n1` [Example 196-A], 4.95; under `CCC[C@@H](N)c1cc(-c2cccc(COc3ccccc3CC(=O)O)c2)ccn1` [Example 196-B], 6.69. On to `NC(c1ccccc1)c1cccc(-c2cccc(COc3ccccc3CC(=O)O)c2)c1` (stereo not shown) [Example 196-C], for which the negative logarithm of the IC50 (pIC50) was 6.50. As to `CCCC[C@@H](N)c1cccc(-c2cccc(COc3ccccc3CC(=O)O)c2)c1` [Example 196-D], the negative-log IC50 (pIC50) was 6.19. In the case of `N#CC[C@@H](N)c1cccc(-c2cccc(COc3ccccc3CC(=O)O)c2)c1` [Example 196-E], the pIC50 is 6.57. `NC(CF)c1cccc(-c2cccc(COc3ccccc3CC(=O)O)c2)c1F` (stereo not shown) [Example 196-F] showed a pIC50 of 8.22.

`N[C@@H](c1cccc(-c2cccc(COc3ccccc3CC(=O)O)c2)c1)C1CC1` [Example 196-G] gave a negative-log IC50 (pIC50) of 5.97. The figure for `N[C@H](CC(F)(F)F)c1cccc(-c2cccc(COc3ccccc3CC(=O)O)c2)c1` [Example 196-H] is 5.93; for `N[C@H](CC1CC1)c1cccc(-c2cccc(COc3ccccc3CC(=O)O)c2)c1` [Example 196-I] it is 6.62; for `CCC[C@@H](N)c1cccc(-c2cc(COc3ccccc3CC(=O)O)cc(NCC3CC3)c2)c1` [Example 197, (R)-2-(2-((3′-(1-Aminobutyl)-5-((cyclopropylmethyl)amino)-[1,1′-biphenyl]-3-yl)methoxy)phenyl)acetic acid] it is 7.16. As to `CCC[C@@H](N)c1cccc(-c2cc(COc3ccccc3CC(=O)O)cc(N3CCOCC3)c2)c1F` [Example 198-C, (R)-2-(2-((3′-(1-Aminobutyl)-2′-fluoro-5-morpholino-[1,1′-biphenyl]-3-yl)methoxy)phenyl)acetic acid], the pIC50 was 6.70.

In turn, `CCC[C@@H](N)c1cccc(-c2cc(COc3ccccc3CC(=O)O)cc(N3CCCC3)c2)c1F` [Example 199-A] showed a negative logarithm of the IC50 (pIC50) of 6.83. `CCC[C@@H](N)c1cccc(-c2cc(COc3ccccc3CC(=O)O)cc(NCC3CC3)c2)c1F` [Example 199-B]: the pIC50 was 7.16.

The compound `CCC[C@@H](N)c1cccc(-c2cc(COc3ccccc3CC(=O)O)cc(NC[C@@H]3CCCO3)c2)c1F` [Example 199-C] showed a negative logarithm of the IC50 (pIC50) of 7.19.

In the case of `CCC[C@@H](N)c1cccc(-c2cc(COc3ccccc3CC(=O)O)cc(-c3ccccc3)c2)c1F` [Example 200-B, (R)-2-(2-((3-(1-aminobutyl)-2-fluoro-[1,1′:3′,1″-terphenyl]-5′-yl)methoxy)phenyl)acetic acid], the negative logarithm of the IC50 (pIC50) was 7.66. The compound `CCC[C@@H](N)c1cccc(-c2cc(COc3ccccc3CC(=O)O)cc(NCCOC)c2)c1` [Example 201, (R)-2-(2-((3′-(1-Aminobutyl)-5-((2-methoxyethyl)amino)-[1,1′-biphenyl]-3-yl)methoxy)phenyl)acetic acid] showed a pIC50 of 6.95. Under `CCC[C@@H](N)c1cccc(-c2cc(COc3ccccc3CC(=O)O)cc(C3CC3)c2)c1F` [Example 202-B, (R)-2-(2-((3′-(1-Aminobutyl)-5-cyclopropyl-2′-fluoro-[1,1′-biphenyl]-3-yl)methoxy)phenyl)acetic acid] stands 7.48; under `CCC[C@@H](N)c1cccc(-c2cc(COc3ccccc3CC(=O)O)cc(-c3cnn(C)c3)c2)c1F` [Example 203, (R)-2-(2-((3′-(1-Aminobutyl)-2′-fluoro-5-(1-methyl-1H-pyrazol-4-yl)-[1,1′-biphenyl]-3-yl)methoxy)phenyl)acetic acid], 7.27. The figure for `CNC(c1cc(COc2ccccc2CC(=O)O)cc(-c2cccc(CN)c2)c1)C(F)(F)F` (stereo not shown) [Example 208-A] is 7.72; for `CN(C)C(c1cc(COc2ccccc2CC(=O)O)cc(-c2cccc(CN)c2)c1)C(F)(F)F` (stereo not shown) [Example 208-B] it is 7.57; for `NCc1cccc(-c2cc(COc3ccccc3CC(=O)O)cc(C(Nc3ccccc3)C(F)(F)F)c2)c1` (stereo not shown) [Example 208-C] it is 8.22. `NCc1cccc(-c2cc(COc3ccccc3CC(=O)O)cc(C(NC(=O)c3ccccc3)C(F)(F)F)c2)c1` (stereo not shown) [Example 208-D]: the pIC50 is 8.40. With `NCc1cccc(-c2cc(CNCC(F)(F)F)cc(COc3ccccc3CC(=O)O)c2)c1` [Example 208-E], the pIC50 is 8.52.

`CC(NCc1cc(COc2ccccc2CC(=O)O)cc(-c2cccc(CN)c2)c1)C(F)(F)F` (stereo not shown) [Example 208-F] gave a negative logarithm of the IC50 (pIC50) of 8.05.
